In ChEMBL document CHEMBL1131759, “A mutational study of a Diels-Alderase catalytic antibody” (Bioorg Med Chem Lett, 1999):

What was measured:
Format in all cases: ADME
[1] = Kinetic constant for the 39-A11 antibody
[2] = Kinetic constant for the Val91Tyr (39-A11)
[3] = Kinetic constant for the germline antibody
[4] = Kinetic constant for the SerL91Val (germline)

Structure (SMILES): CC(=O)Nc1ccc(N2C(=O)C=CC2=O)cc1
- Km [1]: 740 µM
- Km [2]: 420 µM
- Km [3]: 450 µM
- Km [4]: 740 µM

Structure (SMILES): C=C/C=C/NC(=O)OCC(=O)O
- Km [1]: 1200 µM
- Km [2]: 2100 µM
- Km [3]: 1400 µM
- Km [4]: 1200 µM
